Patent US20260318831A1 (University of Cincinnati, priority 2023, published 2026)

How the values were obtained:
[1] = Fluorescence emission of PyQPMe in buffer solutions with different pH; assay type: physicochemical
From the text: In some aspects, the fluorescence of the probe changes as the pH of an endolysosome changes, such as between a pH range of about 8.0 to about 2.0. With the designed probe PyQPMe in hand, its UV-visible absorption was screened in aqueous buffers with a pH range of 8.0 to 4.0. […] Simultaneously, a new absorption maximum at 447 nm (ε=27,264 M^−1 cm^−1) rises with its tail exceeding 600 nm in pH 4.0 buffer solution. […] In addition, the fluorescence intensities of PyQPMe used for different imaging channels of the microscope were compared, where the wavelengths of 500 nm and 645 nm represent the green and red channels, respectively. When the buffer solution is much more acidic, the fluorescence intensity ratio of I645 nm/I500 nm is higher than 1 (FIG. 2C), indicating red color dominates the fluorescence of PyQPMe. Conversely, with increasing the pH value, green fluorescence light is becoming the predominant color for imaging.
Next, the effect of potential biochemical species on the fluorescence intensity of PyQPMe in both pH 3.0 and 8.2 buffer solutions was investigated. […] Fluorescence spectra of PyQPMe in various solvents with different polarities were also obtained. […] Furthermore, the photostability of PyQPMe was investigated under different pH conditions. […] Taken together, the above photophysical results identify that PyQPMe is a pH-sensitive probe, well suited for studying endolysosome dynamics via high-resolution imaging techniques.
Phosphate buffer solution. A series of standard pH buffer solutions were prepared by mixing 0.2 M Na2HPO4·7H2O, 0.2 M KH2PO4, and 0.2 M H3PO4 with varied volume ratios, and the pH values were measured by using a Mettler Toledo pH-meter.
Absorption and emission measurements. 3.0 mL phosphate buffer solution and 6.44 μL probe stock solution (4.66 mM) were mixed well, and an appropriate portion of the solution was transferred to a quartz cell with 1 cm optical length to collect the absorption spectra on an Agilent Cary 453 spectrophotometer. The fluorescence spectra were recorded on a HORIBA Fluorolog QM spectrofluorometer.
Fluorescence reversibility of PyQPMe. The pH of a PyQPMe solution between pH 3.0 and pH 8.5 was adjusted back and forth by adding 2.0 M KOH or 3.0 M HCl, which was monitored by a Mettler Toledo pH meter.

HeLa cells = assay: Background fluorescence / signal-to-noise comparison with LysoTracker Red; assay type: cell-based; conditions: compared with LTR, same imaging conditions
From the text: Since PyQPMe has a large Stokes shift and strong fluorescence intensity, it can effectively reduce the background noise caused by excitation light and microenvironments. To illustrate this merit, the commercial lysosome dye (LysoTracker Red, LTR) was selected for comparison. Two different regions of the background were randomly chosen in each fluorescence image and plotted their 3D fluorescence intensity distribution maps, as shown in FIG. 4E.
(§1) Leica Stellaris 8 Confocal imaging. High-resolution images were acquired on a commercial Leica Stellaris 8 Confocal Microscope under LIGHTNING mode. Laser powers were set at 10% intensity for 405 nm and 640 nm channels. The objective was 63×/1.4. High-resolution images were captured from the randomly selected field of view and analyzed with Leica LAS X and ImageJ software. All the images were exported on the Auto scale of the Leica LAS X software. Cells were seeded on glassed-bottomed cell dishes (MatTek) for 24 hours. Cells stained with PyQPMe (20 nM, 10 min) were treated with Wortmannin (1 μM, 24 h), CCCP ([…], 24 h), rapamycin (0.5 μM, 24 h), chloroquine (25 μM, 30 min), and NH4Cl (50 mM, 30 min). All PCC values were analyzed in the CellProfiler.

[2] = system: endolysosomes in HeLa cells; assay: Dynamics of PyQPMe-stained endolysosomes (puncta counting); assay type: cell-based
Protocol: FIGS. 5A-5H depict the characterization of dynamics of PyQPMe-stained endolysosomes. FIG. 5A. Confocal images of HeLa cells stained with PyQPMe following treatment with or without Wortmannin for 24 h. FIG. 5B. Schematic illustration of the effect of Wortmannin which inhibits the conversion from early endosomes into late endosomes. FIG. 5C. Quantification of total endolysosomes and late endosomes/lysosomes in PyQPMe-stained HeLa cells with or without Wortmannin treatment. FIG. 5D. The ratio of the number of late endosomes/lysosomes to total endolysosomes in PyQPMe-stained HeLa cells treated with or without Wortmannin. FIG. 5E. Confocal images of HeLa cells stained with PyQPMe for 10 min and 60 min. FIG. 5F. The mean red puncta fluorescence intensity of PyQPMe-stained HeLa cells for 10 min and 60 min incubation. FIG. 5G. Quantification of total endolysosomes and late endosomes/lysosomes in PyQPMe-stained HeLa cells for 10 min and 60 min. FIG. 5H. The ratio of the number of late endosomes/lysosomes to total endolysosomes in PyQPMe-stained HeLa cells for 10 min and 60 min. Data are given as M±SEM (n=10 independent samples from 10 cells for each statistical analysis); the statistical differences were analyzed by Student's t-test, p<0.05 is considered to statistical significant (** p≤0.01; *** p≤0.001; **** p≤0.0001; ns p>0.05).
Because of the popularity of quantitative cell biology, it is important to design powerful tools that can digitize individual cells and subcellular organelles to elucidate biological problems in detail. With its great pH response, long-term photostability, and excellent signal-to-noise ratio for high-resolution imaging, PyQPMe was successfully used to track the dynamics of endolysosomes within cells by counting the number of puncta fluorescence signals in both green and red channels (FIG. 5A).
Next, the effects of different incubation time on the endocytic pathway were tested.
as §1

For `CN1CCN(c2ccc(/C=C/c3ccc4cc(-c5ccncc5)ccc4[n+]3C)cc2)CC1` [PyQPMe, (E)-1-methyl-2-(4-(4-methylpiperazin-1-yl)styryl)-6-(pyridin-4-yl)quinolin-1-ium], the maximum emission peak ([1]; 405 nm excitation, neutral solution) was 510 nm, the new emission peak ([1]; 405 nm excitation, pH decreased from 8.0 to 4.0) was 650 nm and the Stokes shift ([1]; acid solution) was “greater than 200 nm”. The “reversibility of emission spectra” value ([1]; between pH 8.5 and pH 3.0) was “excellent reversibility”, the “cut-off pH for the red to green fluorescence intensity ratio” value ([1]; from FIG. 2C) was 5-6 and the “fluorescence intensity ratio I645 nm/I500 nm” value ([1]; much more acidic buffer solution) was “higher than 1”. The quantum yield ([1]; pH 4.0 buffer solution) was 0.23%, the “fluorescence over pH window” value ([1]; pH 8.0 to 4.0) was “remains fluorescent within the entire pH window” and the “red shift of emission” value ([1]; pH decreased from 8.0 to 4.0) was 140 nm. For the same molecule, the “emission intensity ratio I510 nm/I650 nm against pH” value ([1]; pH titration curve) was “decent linear relationship”, the “effect of solvent polarity on fluorescence” value ([1]; various solvents with different polarities) was “polarity has no effect on the fluorescence” and the “background fluorescence of confocal images” value (HeLa cells) was “significantly reduced”. The signal-to-noise ratio (HeLa cells) was “better than that of LTR”, the “intensity of puncta fluorescence in red channel” value ([2]; 60 min vs 10 min incubation) was “increased during 60 min incubation” and the “number of total endolysosomes and late endosomes/lysosomes detected” value ([2]; 60 min vs 10 min incubation) was “more PyQPMe-stained total endolysosomes and late endosomes/lysosomes were simultaneously detected”. The “percentage of late endosomes/lysosomes in total endolysosomes” value ([2]; regardless of incubation time (10 min, 60 min)) was “remained stable”.
